For two compounds, Triple point temperature results are on record in the NIST ThermoML archive (doi:10.1016/j.fluid.2019.01.011).

Numbers after ± are expanded uncertainties.

For this series the following is noted: Crystal; DSC.

For the compound `[Cl-].[Cs+]` [cesium chloride], the Triple point temperature was found to be 918 ± 10 K. As for `[Cl-].[Cl-].[Zn+2]` [zinc chloride], the figure is 587 ± 10 K.
